# Measurements: patent US20050158323A1, “Methods of killing tumor cells by targeting internal antigens exposed on apoptotic tumor cells” (Vaccinex, Inc., priority 2003, published 2005)
# Where two headings read alike, the source gives them in different places.
# T1: recombinant human C35 (rhC35) (Homo sapiens, UniProt Q9BRT3)
# T1 construct: made in house; host or cells: E. coli
# T1 sequence (Q9BRT3 1-115): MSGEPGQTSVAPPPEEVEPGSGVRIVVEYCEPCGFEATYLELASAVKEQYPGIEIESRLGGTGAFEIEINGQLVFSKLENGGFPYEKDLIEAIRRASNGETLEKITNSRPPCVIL
# T2: C35 protein (Homo sapiens, UniProt Q9BRT3)
# T2 sequence (Q9BRT3 1-115): T1 sequence (Q9BRT3 1-115)
# T3: recombinant human C35 (rhC35) (Homo sapiens, UniProt Q9BRT3)
# T3 construct: made in house; host or cells: E. coli
# T3 sequence (Q9BRT3 1-52): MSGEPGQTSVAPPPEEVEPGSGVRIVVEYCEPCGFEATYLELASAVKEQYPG
# T4: recombinant human C35 (rhC35) (Homo sapiens, UniProt Q9BRT3)
# T4 construct: made in house; host or cells: E. coli
# T4 sequence (Q9BRT3 1-104): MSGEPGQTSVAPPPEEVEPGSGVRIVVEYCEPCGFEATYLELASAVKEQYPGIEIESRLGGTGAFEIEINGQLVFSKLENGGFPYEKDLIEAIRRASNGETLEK
# B1: 1B3: mouse monoclonal anti-C35 antibody from hybridoma 1B3, gamma1 isotype, kappa light chain; VH SEQ ID NO:8, VK SEQ ID NO:10 (antibody, listed as Mus sp., V domains shown)
# VH: EVQLQESGPSLVKPSQTLSLTCSVTGDSITSGYWNWIRKFPGNKLEYVGYISYSGGTYYNPSLKSRISITRDTSKNHYYLQLNSVTTEDTATYYCARGAYYGGAFFPYFDVWGAGTTVTVSS
# VL: DVQITQSPSFLAASPGETITINCRASKYISKHLVWYQEKPGETKKLLIYSGSTLQSGLPSRFSGSGSGTDFTLTISSLEPEDFAMYYCQQHNEYPLTFGAGTKLELK
# B2: MAb11 (1B3): 1B3 anti-C35 immunoglobulin variable regions linked to human constant regions (antibody, V domains shown)
# VH: B1 VH
# VL: B1 VL
# B3: C35 protein: control C35 protein coated at 2 μg/ml, positive control of the peptide ELISA (protein, UniProt Q9BRT3 2-112, looked up)
# Migration and invasion …: SGEPGQTSVAPPPEEVEPGSGVRIVVEYCEPCGFEATYLELASAVKEQYPGIEIESRLGGTGAFEIEINGQLVFSKLENGGFPYEKDLIEAIRRASNGETLEKITNSRPPC
# Experiments:
# Colau.C35 tumor cells = assay: Combination radioimmunotherapy and chemotherapy, second experiment (FIG. 6, Table 5); assay type: in vivo, Swiss nude mice
# Description: Swiss nude mice were grafted with Colau.C35 cells on day 0. Chemotherapy: Cisplatin administered at 2 mg/kg i.v. on days 15 & 18; 5FU/LV administered at 180/120 mg/kg i.v. on day 18. Radioimmunotherapy: 300 μCi (˜50 μg) of ^131I-labeled murine 1B3 anti-C35 IgG was administered on day 21.
# In a second experiment, the effect of combination radioimmunotherapy with ^131I labeled 1B3 anti-C35 monoclonal antibody and chemotherapy with cisplatin at 2 mg/kg on day 15 and 18 was tested in Swiss nude mice grafted with Colau.C35 tumor cells. Cispaltin was administered on days 15 and 18 following tumor graft. 300 μCi of ^131I-labeled 1B3 anti-C35 monoclonal antibody was administered on day 21. Tumor growth was followed for up to 10 weeks.
# In the same experiment, separate groups of Swiss nude mice grafted with Colau.C35 tumor cells were treated with either 5-FluoroUracil (5FU) at 180 mg/kg, together with Leucovorin (LV) at 120 mg/kg or this same chemotherapy regimen administered on day 18 followed by 300 μCi of ^131I-labeled 1B3 anti-C35 monoclonal antibody administered on day 21.
# [1] = nude mice, cited from earlier work
# 21MT1 tumor cells = assay: Taxol induced apoptosis and C35 exposure, annexin V/PI flow cytometry; assay type: cell-based, human; details: 0.5 uM, 24 hours
# Description: 24 hours following treatment with 0.5 uM Taxol™, 21MT1 tumor cells were stained with annexin V-FITC, propidium iodide, and with either 100 ng anti-C35 antibody 1F2 (dark line) or isotype control (grey fill) antibody. Both antibodies were directly conjugated to Alexa-647. Histograms were gated on the cells undergoing apoptosis (annexinV positive/PI negative).
# Antibodies were pre-incubated with PAB buffer (FIG. 3A), 100-fold molar excess recombinant C35 protein (FIG. 3B), or 100-fold molar excess β-galactosidase protein (FIG. 3C).
# [2] = tested on: rabbit anti-human C35 polyclonal antibody; assay: ELISA of rabbit C35 immune serum on C35 derived 15 amino acid peptides; assay type: binding
# Excerpt: Rabbit polyclonal antibodies were raised to recombinant C35 employing standard immunization methods well known in the art. Overlapping peptides 15 amino acids in length were synthesized corresponding to the 115 amino acid long C35 protein sequence beginning at each amino acid residue from 1 to 101. Peptides are named based on the C35 position of the amino terminus residue in each 15 amino acid peptide. In each peptide that overlapped the cysteine residues at positions 30, 33 and 112 of the natural C35 sequence, alanine was substituted for cysteine to avoid formation of disulfide crosslinked peptides.
# Wells of 96 well Maxisorp microtiter plates were coated with either 2 μg C35 protein, or 14 μg or 40 μg of the indicated 15 amino acid peptide derived from the C35 protein sequence and binding of antibodies in the rabbit C35 immune serum was determined as described in detail below. Data in Table 11, below, is shown for the positive and negative controls and for those C35 derived peptides for which positive binding was detected. Variations in the level of peptide binding can be due to either differences in the concentration of specific antibody species, differences in antibody affinity or a combination thereof.
# C35 peptide 15-mers in 100% DMSO, 10 mg/ml, were aliquotted into 1.5 ml tubes, 40 μg/tube, under sterile conditions, then speed vacuumed to remove DMSO. The peptides were resuspended in PBS, pH7.2, 1 ml/tube, mixed well and spun down. Each peptide concentration (“peptide solution”) was 40 μg/ml. Peptide solution should be stored at −20° C. until use. Once thawed, it should be kept at 4° C. for no more than 2 weeks.
# For 14 μg/ml peptide coated plates, 65 μl PBS, pH7.2 per well was added, followed by 35 μl peptide solution per well (for a total volume of 100 μl/well), and mixed well. For 40 μg/ml peptide coated plates, 100 μl of peptide solution was placed directly on the plate, 100 μl/well. Control C35 protein was diluted into PBS, pH7.2 to 2 μg/ml and added to the plates, 100 μl/well. Coated plates were incubated at room temperature for 2 hours, then 4° C. overnight.
# Each plate was washed 3 times on a plate washer. […] The secondary antibody, HRP (horseradish peroxidase conjugated goat anti-rabbit Fc polyclonal antibody from Zymed, was diluted at a 1:20,000 dilution into assay diluent and added to the plates, 100 μl/well. The plates were incubated at room temperature for 2 hours. Plates were washed 7 times on a plate washer. Substrate was added as per the kit manufacturers instructions and incubated at room temperature in the dark for 15 minutes. The reaction was stopped by adding 2N H2SO4, 100 μl/well. Absorbance at 450-570 nm was read immediately.
# [3] = target: T1, recombinant human C35 (rhC35); assay: Epitope localization by Western blot of Lys-C digested rhC35; assay type: binding; details: native C35 sequence numbering; 1 μg/ml antibody
# Excerpt: (§1) To localize the epitope specificity of 1B3 and 1F2 antibodies, recombinant human C35 (rhC35) synthesized with a 6× His tag in E. coli was digested with Lys-C endoproteinase. This enzyme cuts after lysine (K) residues in the protein sequence. […] The full sequence of rhC35, including the amino terminal 6× His tag addition is shown. Amino acid positions are numbered relative to the amino terminal methionine (M) of the native human sequence. Note that digestion at the first and third lysine followed by negatively charged residues is inefficient and some longer combination fragments may be generated. Lys-C endoproteinase was added to purified rhC35 at a […] weight ratio and incubated for 18 hours at 37° C. in 25 mM Tris, pH 8.0. The digest was ethanol precipitated and resolubilized in reducing Tricine sample buffer. After heating 5 minutes at 100° C., samples were separated by electrophoresis on a 16% Tricine gel (Invitrogen). Peptides were transferred to PVDF membranes and the blots depicted in FIG. 10 were either stained with Coomassie blue (lanes 1-3 of both left and right panels) to detect all peptides or processed with one of the following: 1 μg/ml of the murine 1F2 anti-C35 antibody followed by alkaline phosphatase conjugated goat anti-mouse antibody (lane 4 of left panel); 1 μg/ml of the 1B3 anti-C35 immunoglobulin variable regions linked to human constant regions (MAb11) followed by alkaline phosphatase conjugated goat anti-human antibody (lane 5 of left panel); or anti-6× His tag mouse antibody (Amersham) followed by alkaline phosphatase conjugated goat anti-mouse antibody (lane 4 and 5 of right panel). BCIP/NBT substrate was added and developed to detect the secondary reagents. Molecular weight markers are indicated in the flanking lanes of both panels.
# (§2) In FIG. 10, the indicated band A migrates at the position of undigested rhC35. Note that band B stains with 1F2 but not MAb11 (1B3) anti-C35 antibody while band C stains with neither 1F2 nor MAb11 (1B3) antibody. Since bands B and C both do stain with anti-6× His tag antibody to the 6× His tag at the amino terminus of rhC35, it may be concluded that both fragments lack C-terminal peptide fragments. […] This epitope is not required for staining with 1F2.
# C35 protein [4] = target: T2, C35 protein; assay: ELISA and Western Blot of hybridoma antibodies; assay type: binding; details: ELISA and Western Blot assays
# Description: (§3) Hybridoma cell lines IF2.4.1 and 1B3.6.1, specific for C35 polypeptides, were prepared using hybridoma technology. (Kohler et al., Nature 256:495 (1975); Kohler et al., Eur. J. Immunol. 6:511 (1976); Kohler et al., Eur. J. Immunol. 6:292 (1976); Hammerling et al., in: Monoclonal Antibodies and T-Cell Hybridomas, Elsevier, N.Y., pp. 571-681 (1981)). Briefly, hybridoma cell lines were generated using standard PEG fusion to the non-secreting myeloma cell line NS-1 (P3/NS1/1-AG4-1, ATCC #TIB-18) of splenocytes from BALB/c mice immunized with syngeneic BCA34 fibroblast tumor cells transduced to overexpress C35. Following PEG fusion to NS-1, the hybridomas were grown in methylcellulose semi-solid media. Approximately 2 weeks later, hybridoma colonies were isolated into 96 well plates and individual supernatants were tested for reactivity with C35 by ELISA, Western blot, and immunohistochemistry. Positive hybridomas colonies were subcloned and screened for reactivity twice to ensure clonality. Antibodies were isolated from hybridoma supernatants by protein G affinity purification using standard methods. […] In addition, we have developed intracellular staining flow cytometry assays for quantitative analysis using antibodies from hybridoma cell line 1F2 conjugated to Alexa-647 flourochrome. Each of these antibodies is distinct, yet both are specific for C35 protein. […]
# C35 protein [5] = target: T2, C35 protein; assay: Competitive binding ELISA; details: 1F2 versus 1B3
# Description: as §3
# [6] = target: T3, recombinant human C35 (rhC35); assay: Epitope localization by Western blot of Lys-C digested rhC35; assay type: binding; details: Western blot, 1 μg/ml antibody
# Excerpt: as §1, §2
# [7] = target: T4, recombinant human C35 (rhC35); assay: as above; assay type: binding; details: Western blot, 1 μg/ml antibody; remark: listed apart in the source
# Excerpt: as §1, §2
# [8] = non-toxic dose at indicated schedule
# [9] = literature values (footnotes 3-5)
# [10] = 14 μg/ml peptide coated plates, 100 ng/ml primary antibody (C35 protein control coated at 2 μg/ml)
# [11] = 40 μg/ml peptide coated plates, 1 μg/ml primary antibody (C35 protein control coated at 2 μg/ml)
molecule,measurement,setting,value
"N.N.[Cl][Pt][Cl] [Cisplatin alone, cisplatin]",inhibition of Colau.C35 tumor growth,"Colau.C35 tumor cells; cisplatin 2 mg/kg days 15 and 18, 5FU/LV 180/120 mg/kg day 18, 300 μCi ^131I-1B3 day 21",some inhibition
same,LCK = Log Cell Kill = TDD/3.32,Colau.C35 tumor cells; same regimens,0.20
same,T−C = difference in time for treated and control tumors to reach a given volume,"Colau.C35 tumor cells; tumor volume 1200 mm^3, cisplatin 2 mg/kg days 15 and 18, 5FU/LV 180/120 mg/kg day 18, 300 μCi ^131I-1B3 day 21",5 days
same,TDD = Tumor doubling delay = T−C/tumor volume doubling time of untreated,"Colau.C35 tumor cells; tumor volume 1200 mm^3, same regimens",0.66
O=P1(N(CCCl)CCCl)NCCCO1 (stereo not shown) [Cyclophosphamide],Maximum Tolerated Dose,[1]; [8],No toxicity^2
Nc1ccn([C@@H]2O[C@H](CO)[C@@H](O)C2(F)F)c(=O)n1 [Gemcitabine],Maximum Tolerated Dose,[1]; [8],No toxicity^5
CCc1c2c(nc3ccc(OC(=O)N4CCC(N5CCCCC5)CC4)cc13)-c1cc3c(c(=O)n1C2)COC(=O)[C@]3(O)CC [Irinotecan],Maximum Tolerated Dose,[1]; [9],15 mg/kg
"CC(=O)O[C@H]1C(=O)[C@@]2(C)[C@H]([C@H](OC(=O)c3ccccc3)[C@]3(O)C[C@H](OC(=O)[C@H](O)[C@@H](NC(=O)c4ccccc4)c4ccccc4)C(C)=C1C3(C)C)[C@]1(OC(C)=O)CO[C@@H]1C[C@@H]2O [Taxol, paclitaxel]",induction of apoptosis with exposure of C35 on the cell surface,21MT1 tumor cells,induces apoptosis
same,Maximum Tolerated Dose,[1]; [8],No toxicity^2
CCC1=C[C@@H]2CN(C1)Cc1c([nH]c3ccccc13)[C@@](C(=O)OC)(c1cc3c(cc1OC)N(C)[C@H]1[C@@](O)(C(=O)OC)[C@H](OC(C)=O)[C@]4(CC)C=CCN5CC[C@]31[C@@H]54)C2 [Vinorelbine],Maximum Tolerated Dose,[1]; [9],20 mg/kg
FPYEKDLLEAIRRAS [Peptide P83],Absorbance @ 450-570 nm,[2]; [10],0.025
same,Absorbance @ 450-570 nm,[2]; [11],0.19
B1,epitope specificity,[3],residues 105-115
same,binding to recombinant C35 protein,C35 protein [4],specifically bind recombinant C35 protein
same,epitope comparison by competition,C35 protein [5],bind different epitopes of the C35 protein
B2,staining of approximately 8 kDa band C (in addition lacks residues 53-104),[6],neither
same,staining of approximately 15 kDa band B (lacks C35 residues 105-115),[7],not
B3,Absorbance @ 450-570 nm,[2]; [10],3.765
same,Absorbance @ 450-570 nm,[2]; [11],3.5225
